Columns and labels:
[1] = for Normal melting temperature: visual observation; for viscosity / mass density: 101.33 kPa, Liquid; for viscosity: Falling or rolling sphere viscometry; for mass density: Vibrating tube method
[2] = Molar enthalpy of transition or fusion; details: Crystal; DSC

c1ccccc1 [benzene]
Details	Normal melting temperature [°C]
[1], Crystal	5.5

CCCCCCCC[n+]1cccc2ccccc21.O=S(=O)([N-]S(=O)(=O)C(F)(F)F)C(F)(F)F [1-octylquinolinium bis[(trifluoromethyl)sulfonyl]imide]
[1]
Details	Normal melting temperature [°C]	mass density [kg/m3]	viscosity [mPa·s]
323.15 K	–	1317.99	98.46
328.15 K	–	1313.82	77.27
333.15 K	–	1309.64	61.75
338.15 K	–	1305.46	50.06
343.15 K	–	1301.29	41.15
348.15 K	–	1297.14	34.22
353.15 K	–	1292.99	28.87
358.15 K	–	1288.85	24.7
363.15 K	–	1284.71	21.19
Crystal	48.2	–	–

[1], DTA
Details	Glass transition temperature [°C]	Triple point temperature [K]
Crystal	–	321.5
Glass	-52.3	–

Details	Molar enthalpy of transition or fusion [kcal/mol]
[2]	15
